What is called EC50 is the concentration needed to bring the measured effect to its halfway point.

SMILES strings stand for the structures. Bounds are passed on as bounds.

For the test, the target named is T1, human GLP-1 receptor (Homo sapiens, UniProt P43220).
T1 construct: expressed in transfected cells
T1 sequence (P43220 24-463): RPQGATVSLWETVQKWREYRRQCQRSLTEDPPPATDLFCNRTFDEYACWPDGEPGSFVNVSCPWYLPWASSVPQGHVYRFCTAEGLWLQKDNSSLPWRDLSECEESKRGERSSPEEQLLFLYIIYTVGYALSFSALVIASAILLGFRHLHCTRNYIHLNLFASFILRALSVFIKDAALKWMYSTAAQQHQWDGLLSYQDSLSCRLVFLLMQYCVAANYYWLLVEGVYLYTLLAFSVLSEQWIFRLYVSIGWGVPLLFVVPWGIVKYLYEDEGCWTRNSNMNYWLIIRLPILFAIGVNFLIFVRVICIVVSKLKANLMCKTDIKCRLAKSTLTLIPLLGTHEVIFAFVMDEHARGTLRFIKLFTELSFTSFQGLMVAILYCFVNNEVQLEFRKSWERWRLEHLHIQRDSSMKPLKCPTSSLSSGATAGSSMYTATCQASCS
In words: GLP-1R cAMP Assay (HitHunter cAMP accumulation). In kind it is cell-based. The conditions noted are these: cAMP accumulation, CHO cells stably overexpressing human GLP-1 receptor, 30 min treatment; read-out: EC50. The method, boiled down: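 CHO cells stably expressing human GLP-1R, 10,000 cells/well in HBSS with 10 mM HEPES and 625 μM IBMX, were mixed with anti-cAMP antibody reagent. Compound was applied as a 20-point dose response in triplicate for 30 min. After lysis and overnight detection, luminescence was read and dose-response curves analysed.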
(In general: Cyclic AMP is a second messenger, typically raised through Gs and lowered through Gi signalling.)
For the compound `N#Cc1ccc(OCc2nc(C34CC3CN(Cc3nc5c(F)cc(C(=O)O)cc5n3C[C@@H]3CCO3)C4)ccc2F)c(F)c1` (stereo partly drawn) [Compound 523, 2-[(1-{6-[(4-cyano-2-fluorophenoxy)methyl]-5-fluoropyridin-2-yl}-3-azabicyclo[3.1.0]hexan-3-yl)methyl]-4-fluoro-1-{[(2S)-oxetan-2-yl]methyl}-1H-1,3-benzodiazole-6-carboxylic acid], the EC50 is under 50 nM.

For the compound `N#Cc1ccc(OCc2nc(C34CC3CN(Cc3nc5ccc(C(=O)O)cc5n3C[C@@H]3CCO3)C4)ccc2F)c(Cl)c1` (stereo partly drawn) [Compound 524, 2-[(1-{6-[(2-chloro-4-cyanophenoxy)methyl]-5-fluoropyridin-2-yl}-3-azabicyclo[3.1.0]hexan-3-yl)methyl]-1-{[(2S)-oxetan-2-yl]methyl}-1H-1,3-benzodiazole-6-carboxylic acid], the EC50 was under 50 nM. To `N#Cc1ccc(OCc2nc(C34CC3CN(Cc3nc5c(F)cc(C(=O)O)cc5n3C[C@@H]3CCO3)C4)ccc2F)c(Cl)c1` (stereo partly drawn) [Compound 525, 2-[(1-{6-[(2-chloro-4-cyanophenoxy)methyl]-5-fluoropyridin-2-yl}-3-azabicyclo[3.1.0]hexan-3-yl)methyl]-4-fluoro-1-{[(2S)-oxetan-2-yl]methyl}-1H-1,3-benzodiazole-6-carboxylic acid] belongs under 50 nM; to `N#Cc1ccc(OCc2nc(N3CC[C@H](Cc4nc5c(F)cc(C(=O)O)cc5n4C[C@@H]4CCO4)C3)ccc2F)c(F)c1` [Compound 529], under 50 nM; to `N#Cc1ccc(OCc2nc(N3CC[C@H](Cc4nc5ccc(C(=O)O)cc5n4C[C@@H]4CCO4)C3)ccc2F)c(F)c1` [Compound 530], under 50 nM. The result for `N#Cc1ccc(OCc2nc([C@@]34C[C@@H]3CN(Cc3nc5c(F)cc(C(=O)O)cc5n3C[C@@H]3CCO3)C4)ccc2F)c(F)c1` [Compound 531, 2-{[(1S,5S)-1-{6-[(4-cyano-2-fluorophenoxy)methyl]-5-fluoropyridin-2-yl}-3-azabicyclo[3.1.0]hexan-3-yl]methyl}-4-fluoro-1-{[(2S)-oxetan-2-yl]methyl}-1H-1,3-benzodiazole-6-carboxylic acid] reads under 50 nM; that for `N#Cc1ccc(OCc2nc([C@]34C[C@H]3CN(Cc3nc5c(F)cc(C(=O)O)cc5n3C[C@@H]3CCO3)C4)ccc2F)c(F)c1` [Compound 532, 2-{[(lR,5R)-1-{6-[(4-cyano-2-fluorophenoxy)methyl]-5-fluoropyridin-2-yl}-3-azabicyclo[3.1.0]hexan-3-yl]methyl}-4-fluoro-1-{[(2S)-oxetan-2-yl]methyl}-1H-1,3-benzodiazole-6-carboxylic acid], under 50 nM; that for `N#Cc1ccc(OCc2nc(N3CC[C@@H](Cc4nc5ccc(C(=O)O)cc5n4C[C@@H]4CCO4)C3)ccc2F)c(F)c1` [Compound 533, 2-(((S)-1-(6-((4-Cyano-2-fluorophenoxy)methyl)-5-fluoropyridin-2-yl)pyrrolidin-3-yl)methyl)-1-(((S)-oxetan-2-yl)methyl)-1H-benzo[d]imidazole-6-carboxylic acid], under 50 nM.

With `N#Cc1ccc(OCc2nc(N3CC[C@@H](Cc4nc5c(F)cc(C(=O)O)cc5n4C[C@@H]4CCO4)C3)ccc2F)c(F)c1` [Compound 534], the EC50 is under 50 nM. The result for `N#Cc1ccc(OCc2nc(N3CCN(Cc4nc5ccc(C(=O)O)cc5n4C[C@@H]4CCO4)C3=O)ccc2F)c(F)c1` [Compound 535, (S)-2-((3-(6-((4-Cyano-2-fluorophenoxy)methyl)-5-fluoropyridin-2-yl)-2-oxoimidazolidin-1-yl)methyl)-1-(oxetan-2-ylmethyl)-1H-benzo[d]imidazole-6-carboxylic acid] reads over 500 nM; that for `O=C(O)c1ccc2nc(Cc3cc(F)c(Oc4ccnc(COc5ccc(Cl)cc5F)c4)cc3F)n(C[C@@H]3CCO3)c2c1` [Compound 536, (S)-2-(4-((2-((4-Chloro-2-fluorophenoxy)methyl)pyridin-4-yl)oxy)-2,5-difluorobenzyl)-1-(oxetan-2-ylmethyl)-1H-benzo[d]imidazole-6-carboxylic acid], under 50 nM; that for `N#Cc1ccc(OCc2cc(Oc3ccc(Cc4nc5c(F)cc(C(=O)O)cc5n4C[C@@H]4CCO4)c(F)c3)ccn2)c(F)c1` [Compound 537, 2-{[4-({2-[(4-cyano-2-fluorophenoxy)methyl]pyridin-4-yl}oxy)-2-fluorophenyl]methyl}-4-fluoro-1-{[(2S)-oxetan-2-yl]methyl}-1H-1,3-benzodiazole-6-carboxylic acid], under 50 nM. With `O=C(O)c1cc(F)c2nc(Cc3cc(F)c(Oc4ccnc(COc5ccc(Cl)cc5F)c4)cc3F)n(C[C@@H]3CCO3)c2c1` [Compound 538, 2-{[4-({2-[(4-chloro-2-fluorophenoxy)methyl]pyridin-4-yl}oxy)-2,5-difluorophenyl]methyl}-4-fluoro-1-{[(2S)-oxetan-2-yl]methyl}-1H-1,3-benzodiazole-6-carboxylic acid], the EC50 is under 50 nM.

Turning to `N#Cc1ccc(OCc2nccc(Oc3ccc(Cc4nc5c(F)cc(C(=O)O)cc5n4C[C@@H]4CCO4)cc3F)n2)c(F)c1` [Compound 539, (S)-2-(4-((2-((4-cyano-2-fluorophenoxy)methyl)pyrimidin-4-yl)oxy)-3-fluorobenzyl)-4-fluoro-1-(oxetan-2-ylmethyl)-1H-benzo[d]imidazole-6-carboxylic acid], the EC50 was under 50 nM. As to `Cc1cc(Oc2ccnc(COc3ccc(C#N)cc3F)n2)ccc1Cc1nc2c(F)cc(C(=O)O)cc2n1C[C@@H]1CCO1` [Compound 540, (S)-2-(4-((2-((4-Cyano-2-fluorophenoxy)methyl)pyrimidin-4-yl)oxy)-2-methylbenzyl)-4-fluoro-1-(oxetan-2-ylmethyl)-1H-benzo[d]imidazole-6-carboxylic acid], the EC50 is under 50 nM.

Regarding `Cc1cc(Oc2ccnc(COc3ccc(C#N)cc3F)n2)ccc1Cc1nc2ccc(C(=O)O)cc2n1C[C@@H]1CCO1` [Compound 541, 2-{[4-({2-[(4-cyano-2-fluorophenoxy)methyl]pyrimidin-4-yl}oxy)-2-methylphenyl]methyl}-1-{[(2S)-oxetan-2-yl]methyl}-1H-1,3-benzodiazole-6-carboxylic acid], the EC50 was under 50 nM.

With `N#Cc1ccc(OCc2cc(Oc3cnc(Cc4nc5c(F)cc(C(=O)O)cc5n4C[C@@H]4CCO4)c(F)c3)ccn2)c(F)c1` [Compound 542, (S)-2-((5-((2-((4-Cyano-2-fluorophenoxy)methyl)pyridin-4-yl)oxy)-3-fluoropyridin-2-yl)methyl)-4-fluoro-1-(oxetan-2-ylmethyl)-1H-benzo[d]imidazole-6-carboxylic acid], the EC50 is under 50 nM. As for `N#Cc1ccc(OCc2cc(Oc3ccc(Cc4nc5c(F)cc(C(=O)O)cc5n4C[C@@H]4CCO4)c(C#N)c3)ccn2)c(F)c1` [Compound 543, 2-{[2-cyano-4-({2-[(4-cyano-2-fluorophenoxy)methyl]pyridin-4-yl}oxy)phenyl]methyl}-4-fluoro-1-{[(2S)-oxetan-2-yl]methyl}-1H-1,3-benzodiazole-6-carboxylic acid], the EC50 was under 50 nM.

Consider `Cc1ccc(OCc2cc(Oc3ccc(Cc4nc5ccc(C(=O)O)cc5n4C[C@@H]4CCO4)cn3)ccn2)c(F)c1` [Compound 544, (S)-2-((6-((2-((2-Fluoro-4-methylphenoxy)methyl)pyridin-4-yl)oxy)pyridin-3-yl)methyl)-1-(oxetan-2-ylmethyl)-1H-benzo[d]imidazole-6-carboxylic acid], for which the half-maximal effective concentration (EC50) is under 50 nM. To `C[C@H]1[C@@H](Oc2ccnc(COc3ccc(C#N)cc3F)n2)CN1Cc1nc2ccc(C(=O)O)cc2n1C[C@@H]1CCO1` [Compound 545, 2-{[(2S,3S)-3-({2-[(4-cyano-2-fluorophenoxy)methyl]pyrimidin-4-yl}oxy)-2-methylazetidin-1-yl]methyl}-1-{[(2S)-oxetan-2-yl]methyl}-1H-1,3-benzodiazole-6-carboxylic acid] belongs under 50 nM. To `C[C@H]1[C@@H](Oc2ccnc(COc3ccc(C#N)cc3F)n2)CN1Cc1nc2c(F)cc(C(=O)O)cc2n1C[C@@H]1CCO1` [Compound 546, 2-{[(2S,3S)-3-({2-[(4-cyano-2-fluorophenoxy)methyl]pyrimidin-4-yl}oxy)-2-methylazetidin-1-yl]methyl}-4-fluoro-1-{[(2S)-oxetan-2-yl]methyl}-1H-1,3-benzodiazole-6-carboxylic acid] belongs under 50 nM. The result for `C[C@H]1[C@@H](Oc2ccnc(COc3ccc(Cl)cc3F)n2)CN1Cc1nc2ccc(C(=O)O)cc2n1C[C@@H]1CCO1` [Compound 547, 2-{[(2S,3S)-3-({2-[(4-chloro-2-fluorophenoxy)methyl]pyrimidin-4-yl}oxy)-2-methylazetidin-1-yl]methyl}-1-{[(2S)-oxetan-2-yl]methyl}-1H-1,3-benzodiazole-6-carboxylic acid] reads under 50 nM. For the compound `C[C@H]1[C@@H](Oc2ccnc(COc3ccc(F)cc3F)n2)CN1Cc1nc2ccc(C(=O)O)cc2n1C[C@@H]1CCO1` [Compound 548], the EC50 was under 50 nM. The result for `C[C@H]1[C@@H](Oc2ccnc(COc3ccc(F)cc3C#N)n2)CN1Cc1nc2ccc(C(=O)O)cc2n1C[C@@H]1CCO1` [Compound 549, 2-{[(2S,3S)-3-({2-[(2-cyano-4-fluorophenoxy)methyl]pyrimidin-4-yl}oxy)-2-methylazetidin-1-yl]methyl}-1-{[(2S)-oxetan-2-yl]methyl}-1H-1,3-benzodiazole-6-carboxylic acid] reads over 500 nM; that for `O=C(O)c1ccc2nc(CN3CC(Oc4ccnc(COc5ccc(F)cc5F)n4)C3)n(C[C@@H]3CCO3)c2c1` [Compound 550], under 50 nM; that for `N#Cc1ccc(OCc2nccc(O[C@H]3C[C@@H](Cc4nc5ccc(C(=O)O)cc5n4C[C@@H]4CCO4)C3)n2)c(F)c1` [Compound 551], under 50 nM. Take `O=C(O)c1ccc2nc(CN3CCC(c4cccc(Oc5ccccc5)c4)C3)n(C[C@@H]3CCO3)c2c1` (stereo partly drawn) [Example 119, 1-(((S)-Oxetan-2-yl)methyl)-2-((3-(3-phenoxyphenyl)pyrrolidin-1-yl)methyl)-1H-benzo[d]imidazole-6-carboxylic acid]: the EC50 was in the range of 50 to 500 nM.

(Values after patent US20220396569A1 (Carmot Therapeutics, Inc., priority 2021, published 2022).)
